Here are results for three molecules from US20210070731A1, “TRICYCLIC KINASE INHIBITORS AND USE THEREOF” (priority 2019, published 2021).

Structures can show the parent of a compound that is named as a salt.

By IC50 is commonly meant the midpoint of a concentration-inhibition curve. A lower IC50 goes with higher potency.

Holding throughout (assay type): biochemical
Settings in all cases: 100 uM ATP, 3 hr incubation, four-parameter fit

In one test the target is T1, SIK2 (Homo sapiens, UniProt Q9H0K1).
T1 construct: purchased SignalChem
T1 sequence (Q9H0K1 whole entry): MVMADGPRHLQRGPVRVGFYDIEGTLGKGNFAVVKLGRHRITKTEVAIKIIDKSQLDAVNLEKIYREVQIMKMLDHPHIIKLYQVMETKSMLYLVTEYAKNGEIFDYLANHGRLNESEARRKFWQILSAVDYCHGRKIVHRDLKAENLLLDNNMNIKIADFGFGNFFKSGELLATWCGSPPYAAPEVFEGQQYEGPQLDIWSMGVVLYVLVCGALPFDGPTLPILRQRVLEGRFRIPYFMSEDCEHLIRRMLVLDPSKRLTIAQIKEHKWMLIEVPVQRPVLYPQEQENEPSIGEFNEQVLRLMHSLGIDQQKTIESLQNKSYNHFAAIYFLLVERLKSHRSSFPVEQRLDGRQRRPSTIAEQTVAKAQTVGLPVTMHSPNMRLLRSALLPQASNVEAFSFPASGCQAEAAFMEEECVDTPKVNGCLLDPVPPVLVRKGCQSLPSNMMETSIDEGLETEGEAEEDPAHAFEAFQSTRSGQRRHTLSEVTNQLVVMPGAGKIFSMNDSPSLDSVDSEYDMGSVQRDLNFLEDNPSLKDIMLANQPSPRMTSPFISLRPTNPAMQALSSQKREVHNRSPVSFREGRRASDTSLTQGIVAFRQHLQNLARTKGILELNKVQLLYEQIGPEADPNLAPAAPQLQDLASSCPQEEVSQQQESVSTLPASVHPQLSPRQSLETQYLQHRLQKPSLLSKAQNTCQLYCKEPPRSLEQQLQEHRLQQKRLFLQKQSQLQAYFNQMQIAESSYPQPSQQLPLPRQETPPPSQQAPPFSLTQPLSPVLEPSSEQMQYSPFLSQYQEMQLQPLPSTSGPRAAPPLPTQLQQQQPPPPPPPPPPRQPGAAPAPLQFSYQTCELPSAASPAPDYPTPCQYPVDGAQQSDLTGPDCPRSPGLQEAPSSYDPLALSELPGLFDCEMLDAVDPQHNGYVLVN
The experiment in a line: Phosphorylation assay ([γ-32P]-ATP, P81 paper), SIK2. The source says: (§1) Kinase activity and inhibition can be measured using binding assays as well as phosphorylation assays. In the binding assays, e.g. KinaseSeeker (Luceome Biotechnologies, Tucson, Ariz.) or Kinomescan (Eurofins), the competitive displacement of a kinase active site binding probe by a compound is detected and serves as a measure of compound inhibition. In phosphorylation assays, e.g. radioactivity assays or ADP-Glo (Promega) assays, the phosphorylation of a peptide or protein substrate is used to evaluate enzyme activity, and the reduction of phosphorylation in presence of a compounds serves as a measure of compound inhibition. The inhibitor compounds described herein are screened in the following manner.
(§2) For phosphorylation assays, 30 ng of the active kinase (SignalChem) in kinase assay buffer was incubated with either inhibitor in DMSO or DMSO (no inhibitor control). Reaction was started by the addition of 10 mM magnesium sulfate, 100 uM [γ-^32P]-ATP and appropriate concentration of the relevant peptide substrate. After 3 hr incubation, the reaction was terminated by spotting 25 μl of the reaction mixture onto P81 paper strips. The paper strips were air dried, washed three times with 0.85% phosphoric acid and finally with acetone. The P81 paper was immersed in 10 mL of scintillation cocktail, and the radioactive counts were measured. For dose dependent curves, kinases were treated at varying concentrations of the compound in activity assays and IC50 values were determined using a four-parameter fit. The IC50 values against a select set of kinases is given below.

Another test concerns the target T2, CLK2 (Homo sapiens, UniProt P49760).
T2 construct: purchased SignalChem
The experiment in a line: Phosphorylation assay ([γ-32P]-ATP, P81 paper), CLK2.
Source text: as §1, §2

The next test addresses T3, NUAK1 (Homo sapiens, UniProt O60285).
T3 construct: purchased SignalChem
T3 sequence (O60285 1-661): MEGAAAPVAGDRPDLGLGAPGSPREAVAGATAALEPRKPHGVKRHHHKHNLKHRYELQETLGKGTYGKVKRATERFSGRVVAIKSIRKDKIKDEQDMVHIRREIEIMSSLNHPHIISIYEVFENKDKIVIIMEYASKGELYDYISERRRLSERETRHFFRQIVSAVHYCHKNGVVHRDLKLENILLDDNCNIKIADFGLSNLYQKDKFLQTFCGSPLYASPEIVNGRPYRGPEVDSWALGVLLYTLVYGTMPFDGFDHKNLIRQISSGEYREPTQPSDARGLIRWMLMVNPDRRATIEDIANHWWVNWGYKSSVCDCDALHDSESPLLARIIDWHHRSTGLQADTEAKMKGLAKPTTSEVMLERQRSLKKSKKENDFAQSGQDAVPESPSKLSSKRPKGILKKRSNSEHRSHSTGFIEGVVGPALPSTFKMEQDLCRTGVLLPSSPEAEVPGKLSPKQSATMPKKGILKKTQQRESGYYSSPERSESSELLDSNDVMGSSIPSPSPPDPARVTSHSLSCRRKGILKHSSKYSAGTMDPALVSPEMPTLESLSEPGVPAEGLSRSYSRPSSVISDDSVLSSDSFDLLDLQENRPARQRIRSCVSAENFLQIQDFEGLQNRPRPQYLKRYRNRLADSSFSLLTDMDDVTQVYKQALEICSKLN
The experiment in a line: Phosphorylation assay ([γ-32P]-ATP, P81 paper), NUAK1.
Source text: as §1, §2

The target of the next test is T4, NUAK2 (Homo sapiens, UniProt Q9H093).
T4 construct: purchased SignalChem
T4 sequence (Q9H093 1-628): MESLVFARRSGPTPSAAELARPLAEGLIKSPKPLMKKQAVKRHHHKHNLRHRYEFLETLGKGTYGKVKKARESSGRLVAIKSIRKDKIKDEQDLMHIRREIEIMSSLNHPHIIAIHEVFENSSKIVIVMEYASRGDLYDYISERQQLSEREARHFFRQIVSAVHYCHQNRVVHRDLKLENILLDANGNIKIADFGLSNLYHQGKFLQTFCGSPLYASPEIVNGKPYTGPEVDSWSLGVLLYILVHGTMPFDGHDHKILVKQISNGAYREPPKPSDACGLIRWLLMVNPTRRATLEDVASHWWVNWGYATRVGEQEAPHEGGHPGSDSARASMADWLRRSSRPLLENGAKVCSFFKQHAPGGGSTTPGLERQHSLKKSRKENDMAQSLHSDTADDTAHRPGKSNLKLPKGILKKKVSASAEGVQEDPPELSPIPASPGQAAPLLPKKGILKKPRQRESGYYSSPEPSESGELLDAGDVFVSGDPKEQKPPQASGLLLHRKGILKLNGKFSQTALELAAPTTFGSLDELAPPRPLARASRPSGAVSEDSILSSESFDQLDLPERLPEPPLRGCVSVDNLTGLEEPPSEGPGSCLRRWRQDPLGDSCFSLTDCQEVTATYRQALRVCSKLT
The experiment in a line: Phosphorylation assay ([γ-32P]-ATP, P81 paper), NUAK2.
Source text: as §1, §2

The next test addresses T5, CLK1 (Homo sapiens, UniProt P49759).
T5 construct: purchased SignalChem
The experiment in a line: Phosphorylation assay ([γ-32P]-ATP, P81 paper), CLK1.
Source text: as §1, §2

T2 sequence (P49760 whole entry): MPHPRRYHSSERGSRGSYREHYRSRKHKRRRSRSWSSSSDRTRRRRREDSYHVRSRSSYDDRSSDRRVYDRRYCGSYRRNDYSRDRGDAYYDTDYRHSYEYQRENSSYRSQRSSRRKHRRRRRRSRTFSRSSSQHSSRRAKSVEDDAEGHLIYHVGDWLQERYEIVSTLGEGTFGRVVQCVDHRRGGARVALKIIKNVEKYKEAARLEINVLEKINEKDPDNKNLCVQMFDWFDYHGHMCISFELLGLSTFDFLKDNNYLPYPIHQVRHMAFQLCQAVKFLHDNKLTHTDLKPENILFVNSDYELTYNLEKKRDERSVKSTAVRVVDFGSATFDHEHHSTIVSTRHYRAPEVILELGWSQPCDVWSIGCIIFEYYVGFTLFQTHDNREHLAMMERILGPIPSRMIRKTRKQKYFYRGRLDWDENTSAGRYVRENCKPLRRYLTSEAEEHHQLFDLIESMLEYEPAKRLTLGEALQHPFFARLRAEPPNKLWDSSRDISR
T5 sequence (P49759 whole entry): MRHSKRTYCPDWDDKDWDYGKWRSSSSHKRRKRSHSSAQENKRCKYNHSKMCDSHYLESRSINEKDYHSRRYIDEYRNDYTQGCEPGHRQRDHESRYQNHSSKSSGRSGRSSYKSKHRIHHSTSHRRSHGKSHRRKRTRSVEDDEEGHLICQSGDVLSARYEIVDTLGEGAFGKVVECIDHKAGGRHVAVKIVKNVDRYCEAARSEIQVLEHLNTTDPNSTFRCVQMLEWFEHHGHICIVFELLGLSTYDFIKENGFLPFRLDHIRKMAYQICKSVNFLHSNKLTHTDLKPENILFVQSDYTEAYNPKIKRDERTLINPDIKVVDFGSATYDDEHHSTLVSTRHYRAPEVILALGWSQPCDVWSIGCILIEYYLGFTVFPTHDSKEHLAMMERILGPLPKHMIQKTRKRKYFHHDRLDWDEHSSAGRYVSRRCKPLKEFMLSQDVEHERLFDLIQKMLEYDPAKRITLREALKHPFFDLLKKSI

Consider `CN1C(=O)c2ccccc2N(C)c2cc(Nc3ccn(C4CCNCC4)n3)ncc21` [Compound 30, 5,11-dimethyl-3-((1-(piperidin-4-yl)-H-pyrazol-3-yl)amino)-5,11-dihydro-10H-benzo[e]pyrido[3,4-b][1,4]diazepin-10-one TFA Salt], for which the IC50 on SIK2 is 1500 nM; on CLK2, 33000 nM; against NUAK1, 130 nM; against NUAK2, 340 nM; against CLK1, 57800 nM.

On to `CN1Cc2ccccc2N(C)c2cc(Nc3ccn(C4CCNCC4)n3)ncc21` [Compound 14, 5,11-dimethyl-N-(1-(piperidin-4-yl)-1H-pyrazol-3-yl)-10,11-dihydro-5H-benzo[e]pyrido[3,4-b][1,4]diazepin-3-amine], for which the IC50 against SIK2 is 18600 nM; on CLK2, 1500 nM; at NUAK1 it was 1300 nM; on NUAK2, 4600 nM; against CLK1, 2700 nM.

Take `CN1Cc2cnc(Nc3ccn(C4CCNCC4)n3)cc2N(C)c2ccccc21` [Compound 24, 5,10-dimethyl-N-(1-(piperidin-4-yl)-1H-pyrazol-3-yl)-10,11-dihydro-5H-benzo[b]pyrido[4,3-e][1,4]diazepin-3-amine]: the IC50 on SIK2 was 690 nM; on CLK2, 9500 nM; against NUAK1, 1300 nM; on NUAK2, 7000 nM; on CLK1, greater than 50000 nM.
